Laboratory results taken from publication PMC3685872 (Bioorganic & medicinal chemistry, 2013).
Values belong to the molecule of their own block, whether it stands above or below them.

Assays:
[1] = system: Jurkat T cell acute lymphoblastic leukemia cell line; test: Anti-leukemia AlamarBlue assay in Jurkat cells; format: cell-based, human; conditions: for loss in anti-leukemic potency compared to dimer 838 / loss in anti-leukemic potency compared to oxygenated counterpart: Jurkat cells; for loss in anti-leukemic potency compared to dimer 838: relative to 838; for loss in anti-leukemic potency compared to oxygenated counterpart: phosphoryl oxygen replaced with sulfur
CMV = conditions: cited from earlier work
[2] = system: PHA-stimulated peripheral blood mononuclear cells (PBMCs); test: Toxicity to nonmalignant PHA-stimulated PBMCs; format: cell-based; conditions: Homo sapiens, PBMC, 48 h, read-out: PHA-stimulated PBMC IC50
[3] = system: prostate cancer LNCaP cells; conditions: compared with standard drug doxorubicin; ref [12]; cited from earlier work

Anti-leukemia IC50 ([1]; Jurkat T-ALL cells, 48 hours of drug treatment, AlamarBlue, average of triplicate experiments): essentially inactive
SMILES: CO[C@H]1O[C@@H]2O[C@@]3(C)CC[C@H]4[C@H](C)CC[C@@H]([C@H]1C)[C@@]24OO3 [Artemether, artemether, reference compound]
activity against CMV (CMV; as previously determined, ref [9]): weak activity

SMILES: C[C@H]1[C@@H](CC(COP(=O)(O)Oc2ccccc2)C[C@H]2O[C@@H]3O[C@@]4(C)CC[C@H]5[C@H](C)CC[C@@H]([C@H]2C)[C@@]35OO4)O[C@@H]2O[C@@]3(C)CC[C@H]4[C@H](C)CC[C@@H]1[C@@]24OO3 (stereo partly drawn) [compound 762, monophenylphosphate ester]
loss in anti-leukemic potency compared to dimer 838 [1]: 70 fold
IC50 [2]: ~40 µM

SMILES: C[C@H]1[C@@H](CC(COP2(=O)Oc3ccccc3-c3ccccc3O2)C[C@H]2O[C@@H]3O[C@@]4(C)CC[C@H]5[C@H](C)CC[C@@H]([C@H]2C)[C@@]35OO4)O[C@@H]2O[C@@]3(C)CC[C@H]4[C@H](C)CC[C@@H]1[C@@]24OO3 (stereo partly drawn) [compound 836, dimer biphenylphosphate ester]
loss in anti-leukemic potency compared to dimer 838 [1]: about half as efficacious

SMILES: C[C@H]1[C@@H](CC(COP(=O)(Oc2ccccc2)Oc2ccccc2)C[C@H]2O[C@@H]3O[C@@]4(C)CC[C@H]5[C@H](C)CC[C@@H]([C@H]2C)[C@@]35OO4)O[C@@H]2O[C@@]3(C)CC[C@H]4[C@H](C)CC[C@@H]1[C@@]24OO3 (stereo partly drawn) [compound 838, trioxane dimer diphenyl phosphate ester]
potency at inhibiting growth of LNCaP cells [3]: more potent than the standard drug doxorubicin
selectivity index (anti-CMV/cytotoxicity) (CMV; ref [10]): approximately 1500

SMILES: C[C@H]1[C@@H](CC(COP(=O)(OC2CCCCC2)OC2CCCCC2)C[C@H]2O[C@@H]3O[C@@]4(C)CC[C@H]5[C@H](C)CC[C@@H]([C@H]2C)[C@@]35OO4)O[C@@H]2O[C@@]3(C)CC[C@H]4[C@H](C)CC[C@@H]1[C@@]24OO3 (stereo partly drawn) [compound 851, dimer dicyclohexylphosphate ester]
loss in anti-leukemic potency compared to dimer 838 [1]: about half as efficacious

SMILES: C[C@H]1[C@@H](CC(COP2(=S)Oc3ccccc3-c3ccccc3O2)C[C@H]2O[C@@H]3O[C@@]4(C)CC[C@H]5[C@H](C)CC[C@@H]([C@H]2C)[C@@]35OO4)O[C@@H]2O[C@@]3(C)CC[C@H]4[C@H](C)CC[C@@H]1[C@@]24OO3 (stereo partly drawn) [compound 853, dimer biphenylthiophosphate ester]
loss in anti-leukemic potency compared to oxygenated counterpart [1]: ~ 9 fold

SMILES: C[C@H]1[C@@H](CC(COP(=S)(Oc2ccccc2)Oc2ccccc2)C[C@H]2O[C@@H]3O[C@@]4(C)CC[C@H]5[C@H](C)CC[C@@H]([C@H]2C)[C@@]35OO4)O[C@@H]2O[C@@]3(C)CC[C@H]4[C@H](C)CC[C@@H]1[C@@]24OO3 (stereo partly drawn) [compound 855, dimer diphenylthiophosphate ester]
loss in anti-leukemic potency compared to oxygenated counterpart [1]: ~ 18 fold

SMILES: Cc1cccc(C)c1OP(=O)(OCC(C[C@H]1O[C@@H]2O[C@@]3(C)CC[C@H]4[C@H](C)CC[C@@H]([C@H]1C)[C@@]24OO3)C[C@H]1O[C@@H]2O[C@@]3(C)CC[C@H]4[C@H](C)CC[C@@H]([C@H]1C)[C@@]24OO3)Oc1c(C)cccc1C [compound 895, dimer bis-(2,6-dimethylphenyl)phosphate ester]
loss in anti-leukemic potency compared to dimer 838 [1]: comparable potency

SMILES: CC(C)c1ccc(OP(=O)(OCC(C[C@H]2O[C@@H]3O[C@@]4(C)CC[C@H]5[C@H](C)CC[C@@H]([C@H]2C)[C@@]35OO4)C[C@H]2O[C@@H]3O[C@@]4(C)CC[C@H]5[C@H](C)CC[C@@H]([C@H]2C)[C@@]35OO4)Oc2ccc(C(C)C)cc2)cc1 [compound 923, dimer bis-(4-isopropylphenyl)phosphate ester]
loss in anti-leukemic potency compared to dimer 838 [1]: 5 fold
